According to US20170029531A1, “INHIBITION OF LACTATE DEHYDROGENASE 5 (LDH-5) BINDING, INCORPORATION, INTERNALIZATION AND/OR ENDOCYTOSIS TO IMMUNE CELLS” (Seattle Children's Hospital (dba Seattle Children's …, priority 2014, published 2017):

How the values were obtained:
[1] = target: MHC class I polypeptide-related sequence B (MICB) on monocytes (human) (UniProt Q29980); test: cell-based or functional assay
[2] = target: UL16-binding protein 1 (ULBP1) on monocytes (human) (UniProt Q9BZM6); test: cell-based or functional assay
Chain of UniProt Q9BZM6 (Q9BZM6 26-216): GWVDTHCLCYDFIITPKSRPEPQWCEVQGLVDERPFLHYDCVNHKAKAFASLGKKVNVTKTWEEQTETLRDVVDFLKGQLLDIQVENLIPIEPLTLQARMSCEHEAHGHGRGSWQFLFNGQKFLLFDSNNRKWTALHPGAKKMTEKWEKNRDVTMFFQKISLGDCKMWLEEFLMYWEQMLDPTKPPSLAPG

U87 = U87 uptake of fluorescently labeled LDH5, flow cytometry; assay type: cell-based
Procedure: FIG. 26. U87 uptake. […] Fluorescently labeled LDH5 and Transferrin were pre-incubated with anti-LDHa at equilmolar concentrations. The antibody protein combination were then fed to U87 for 30 min. Cells were then trypsinized, acid washed, fixed in 2% PFA. Fluorescence intensity was obtained by flow cytometry. Anti-LDHa blocks uptake by approximately 50%, but has no effect on Transferrin uptake. N=2, p<0.05.
FIG. 27. U87 uptake. […] Fluorescently labeled LDH5 and Transferrin were incubated with U87 in the presence or absence of 20 mM oxamate for 30 min. Cells were then trypsinized, acid washed, fixed in 2% PFA. Fluorescence intensity was obtained by flow cytometry. N=1.
FIG. 28. U87 uptake. […] Fluorescently labeled LDH5 and Transferrin were incubated with U87 in the presence or absence of equimolar MDH for 30 min. Cells were then trypsinized, acid washed, fixed in 2% PFA. Fluorescence intensity was obtained by flow cytometry. N=1.
FIG. 29. U87 uptake. […] Cells were pre-incubated with 30 uM Dyngo 4a or 18 uM Pitstop. Fluorescently labeled LDH5 was then added for 30 min. Cells were then trypsinized, acid washed, fixed in 2% PFA. Fluorescence intensity was obtained by flow cytometry.
Experimental wells were pulsed with 10 ug/mL LDH-A488 for 30 min or 24 hours as indicated (control wells received no LDH) at 37° C. Cells were treated for 2 min with 0.5M acetic acid+150 mM NaCl (pH 2.5), followed by 4 subsequent washes in RPMI+10% FBS. […] (See FIGS. 26-29).

primary human NK cells = test: NKG2D expression and CD107a degranulation of primary human NK cells after incubation with LDH or lactate; assay type: cell-based; conditions: LDH 50 ug/mL or lactate 20 mM; 12 hour (NKG2D, NKp46) or 6 hour after IL-2 (CD107a)
From the text: FIG. 2. Biochemical purification of tumor-derived Lactate Dehydrogenase, expression in glioma cell lines and verification of LDH-mediated induction of NKG2D ligands on monocytes. (Panel A) Protein purification strategy. […] of U87 glioblastoma cell line supernatant were subjected to ammonium sulfate precipitation. Active fractions were passed over a phenyl Sepharose column and active fractions were then subjected to size exclusion (Superdex 200), followed by ion exchange (MonoS) before Mass Spectroscopy (MS) analysis. (Panel B) Following separation by chromatography, fractions were dialyzed into PBS and cultured with MHD (healthy monocytes) for 18 hours. Whole cell mRNA was reverse transcribed, and induction of MICB and ULBP-1 was analyzed relative to media alone controls. […] (Panel C) mRNA isolated from PBMC of healthy donors, 293T cells (as negative controls), and U87, U251, and SF767 glioma cell lines were analyzed for expression of LDHA and LDHB by qPCR. (Panel D) A 1:10 dilution of fresh, unfrozen glioblastoma cell line supernatants was analyzed for total LDH enzymatic activity and expressed as OD 495 nm. […] Eighteen hours later, mRNA was isolated and analyzed for MICA, MICB, and ULBP-1 by qPCR. […] Eighteen hours later, mRNA was isolated and analyzed for MICA, MICB and ULBP-1 by qPCR. […] Eighteen hours later, MICB (black bars) and ULBP-1 (gray bars) were measured by qPCR. […]

[3] = test system: monocytes from healthy donors; test: NKG2D ligand (MICA, MICB, ULBP-1) mRNA induction in monocytes from healthy donors (MHD), qPCR; assay type: cell-based, human; conditions: U87 supernatant with sodium oxamate (100 mM in FIG. 2 panel E; 20 mM in the LDH inhibition method); 18 h; qPCR
From the text: FIG. 2. Biochemical purification of tumor-derived Lactate Dehydrogenase, expression in glioma cell lines and verification of LDH-mediated induction of NKG2D ligands on monocytes. (Panel A) Protein purification strategy. […] of U87 glioblastoma cell line supernatant were subjected to ammonium sulfate precipitation. Active fractions were passed over a phenyl Sepharose column and active fractions were then subjected to size exclusion (Superdex 200), followed by ion exchange (MonoS) before Mass Spectroscopy (MS) analysis. (Panel B) Following separation by chromatography, fractions were dialyzed into PBS and cultured with MHD (healthy monocytes) for 18 hours. Whole cell mRNA was reverse transcribed, and induction of MICB and ULBP-1 was analyzed relative to media alone controls. Western blot analysis using a monoclonal antibody to LDH-5 (ab101562) was performed on […] of total protein to confirm the presence of LDH-5 in the active fractions. (Panel C) mRNA isolated from PBMC of healthy donors, 293T cells (as negative controls), and U87, U251, and SF767 glioma cell lines were analyzed for expression of LDHA and LDHB by qPCR. (Panel D) A 1:10 dilution of fresh, unfrozen glioblastoma cell line supernatants was analyzed for total LDH enzymatic activity and expressed as OD 495 nm. (Panel E) Validation of LDH induction of NKG2D ligands in monocytes. Six hundred twenty five U/L of purified, native LDH-5, fresh U87 supernatant, or fresh U87 supernatant in the presence of 100 mM sodium oxamate (NaOx) were cultured with MHD. Eighteen hours later, mRNA was isolated and analyzed for MICA, MICB, and ULBP-1 by qPCR. Values represent induction relative to MHD cultured in media alone. (Panel F) Fresh U87 supernatant, 625 U/L of purified, native LDH-5, LDH-5+0.5 mM Pyruvate (Pyr), or LDH-5+0.5 mM pyruvate and 100 mM NaOx were cultured with MHD. Eighteen hours later, mRNA was isolated and analyzed for MICA, MICB and ULBP-1 by qPCR. Values represent induction relative to MHD cultured in media alone. (Panel G) MHD were cultured with native LDH-5 isolated from liver cells. Eighteen hours later, MICB (black bars) and ULBP-1 (gray bars) were measured by qPCR. (Panel H) Expression of NKG2D and NKp46 on primary human NK cells following a 12 hour incubation with LDH (50 ug/mL) or lactate (20 mM). Cells were surface stained with antibodies directed against CD3, CD56, NKG2D, and NKp46 and analyzed by flow cytometry. The expression level of NKG2D and NKp46 are plotted against CD56. (Panel I) Expression of CD107a on primary human NK cells following IL-2 (1000 U/ml) activation and a 6 hour incubation with LDH (50 ug/mL) or lactate (20 mM). Cells were surface stained with antibodies directed against CD3, CD56, and CD107a and analyzed by flow cytometry. Representative data are shown in the top panels, a summary of percent CD107a+NK cells is shown below. (Panel J) 293T cells were transiently transfected with a pcDNA3.1 (−) vector encoding either LDHA or LDHB, or both constructs. Supernatant was then cultured with CD14-positively selected MHD. Eighteen hours later, MICB and ULBP-1 were measured by qPCR. Values represent induction relative to monocytes cultured in media alone. *P<0.05, **P<0.01.
FIG. 21. Purified native LDH5 or LDH1 was cultured with monocytes from healthy donors. Eighteen hours later, MICB and ULBP-1 were measured by qPCR. Values represent induction relative to monocytes cultured in medium alone. […]

Tumor cells = test: LDH-5 internalization by tumor cells, flow cytometry (FIGS. 16-19); assay type: cell-based; conditions: sodium oxamate, FIG. 18
Procedure: FIG. 17. Tumor cells internalize LDH-5, which can be reduced by antibody blocking. 10 ug/ml of LDH5 specific monoclonal antibody was added to cells 1 hour prior to culture with LDH5 as described above and evaluated for internalization using flow cytometry to evaluate fluorescence.
FIG. 19. LDH-5 internalization is receptor mediated and Clathrin dependent. LDH5 internalization is reduced with receptor mediated endocytosis inhibitors.
LDH5 internalization is reduced with receptor mediated endocytosis inhibitors. This supports that internalization is mediated by a specific receptor, as opposite to bulk phagocytosis.

[4] = test system: monocytes, or monocyte derived macrophages; test: Uptake of fluorescently labeled LDH5 by monocytes / monocyte derived macrophages (CD14+ cells), flow cytometry; assay type: cell-based, human; conditions: monocyte derived macrophages pre-incubated with 25 uM chlorpromazine for 30 min, labeled LDH5 for a further 30 min; N=2
Procedure: FIG. 23. […] Fluorescently labeled LDH5 was pre-incubated with anti-LDHa at equilmolar concentrations. The antibody protein combination was then fed to monocytes, or monocyte derived macrophages for 30 min. Cells were then trypsinized, acid washed, fixed in 2% PFA. Fluorescence intensity was obtained by flow cytometry. Anti-LDHa blocks uptake by approximately 50%. Macrophages N=1, Monocytes N=2.
FIG. 24. […] Monocyte derived macrophages were pre-incubated with 25 uM chlorpromazine for 30 min. Fluorescently labeled LDH5 was then added for an additional 30 min. Cells were then trypsinized, acid washed, fixed in 2% PFA. Fluorescence intensity was obtained by flow cytometry. N=2
FIG. 25. […] Fluorescently labeled LDH5 was incubated with U87 in the presence or absence of equimolar MDH for 30 min. Cells were then trypsinized, acid washed, fixed in 2% PFA. Fluorescence intensity was obtained by flow cytometry. N=2.
In an experiment utilizing the antibody with LDH5 in serum, the LDH5 complexed to the antibody was added to macrophages and to a sample of monocytes. […] Monocyte derived macrophages were pre-incubated with 25 uM chlorpromazine for 30 min. […] Fluorescence intensity was obtained by flow cytometry. […] Fluorescence intensity was obtained by flow cytometry. Cells exposed to LDH5-A488 were compared to cells without and amount of fluorescence was determined to represent amount of LDH5 inside of the cell.

Chain of UniProt Q29980 (Q29980 23-383): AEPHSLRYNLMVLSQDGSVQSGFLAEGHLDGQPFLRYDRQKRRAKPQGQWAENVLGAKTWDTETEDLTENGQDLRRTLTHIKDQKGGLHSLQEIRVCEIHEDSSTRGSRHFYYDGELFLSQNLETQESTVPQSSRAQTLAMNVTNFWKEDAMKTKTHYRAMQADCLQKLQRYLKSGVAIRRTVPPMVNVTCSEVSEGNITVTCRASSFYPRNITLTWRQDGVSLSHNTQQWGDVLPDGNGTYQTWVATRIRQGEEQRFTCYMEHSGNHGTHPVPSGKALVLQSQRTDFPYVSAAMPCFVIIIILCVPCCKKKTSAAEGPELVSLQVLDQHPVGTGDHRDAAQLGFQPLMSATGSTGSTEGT

## Natural killer group 2, member D (NKG2D) receptor on NK cells (from UniProt P26718 1-216)
[1]
  IFN-γ production by degranulating NK cells: 20.2%
  degranulation of IL-2-activated NK cells: 75.3%
[2]
  IFN-γ production by degranulating NK cells: 20.2%
  degranulation of IL-2-activated NK cells: 75.3%

## O=C1N=C(NS(=O)(=O)c2cccc3ccccc23)SC1=Cc1ccc(Br)cc1 [Pitstop]
U87; U87 pre-incubated with 18 uM Pitstop, labeled LDH5 for 30 min
  LDH5 uptake, effect in words: block LDH5 uptake

## CC(O)C(=O)O (centres unmarked) [lactate]
Primary human NK cells
  NK cell NKG2D expression or degranulation: neither lactate nor LDH-5 alone directly impacted

## O=C(N/N=C/c1cc(O)c(O)cc1O)c1cc2ccccc2cc1O [Dyngo 4a]
U87; U87 pre-incubated with 30 uM Dyngo 4a, labeled LDH5 for 30 min
  LDH5 uptake, effect in words: block LDH5 uptake

## NC(=O)C(=O)[O-].[Na+] [Sodium oxamate, sodium oxamate, reference compound]
U87; U87, 20 mM oxamate, 30 min, N=1
  LDH5 uptake, effect in words: blocks LDH5 uptake
[3]
  Ability of U87 supernatant to induce NKG2D ligands (mRNA) on MHD: significantly reduced
Tumor cells
  LDH-5 internalization in tumor cells, effect in words: reduces internalization

## CN(C)CCCN1c2ccccc2Sc2ccc(Cl)cc21 [chlorpromazine]
[4]
  LDH5 uptake, effect in words: blocks LDH5 uptake
